Measurements taken from PubChem BioAssay AID1963849 (Molecular Pharmacology Branch, DTP, NCI, 2024).

Tested on: 299254-011-R-J1-PDC complex spheroid viability
Assay: Anticancer human tumor 299254-011-R-J1-PDC patient-derived melanoma cell line growth inhibition [POLQ]
Conditions: for IC50: curve of first compound; for viability, T/C: stronger effect = lower value
How it was run: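 PDC + HUVEC + MSC complex spheroids; POLQ inhibitors ± partner drugs; top conc. at/near clinical Cmax, else 10 microM (SN-38 1 microM), half-log dilutions; 37 degrees C, 5% CO2.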

[1] = second compound 0.0316 µM, first compound 0.0316 µM
[2] = second compound 0.0316 µM, first compound 0.1 µM
[3] = second compound 0.0316 µM, first compound 0.316 µM
[4] = second compound 0.0316 µM, first compound 1 µM
[5] = second compound 0.0316 µM, first compound 3.16 µM
[6] = second compound 0.0316 µM, first compound 10 µM
[7] = second compound 0.1 µM, first compound 0.0316 µM
[8] = second compound 0.1 µM, first compound 0.1 µM
[9] = second compound 0.1 µM, first compound 0.316 µM
[10] = second compound 0.1 µM, first compound 1 µM
[11] = second compound 0.1 µM, first compound 3.16 µM
[12] = second compound 0.1 µM, first compound 10 µM
[13] = second compound 0.316 µM, first compound 0.0316 µM
[14] = second compound 0.316 µM, first compound 0.1 µM
[15] = second compound 0.316 µM, first compound 0.316 µM
[16] = second compound 0.316 µM, first compound 1 µM
[17] = second compound 0.316 µM, first compound 3.16 µM
[18] = second compound 0.316 µM, first compound 10 µM
[19] = second compound 1 µM, first compound 0.0316 µM
[20] = second compound 1 µM, first compound 0.1 µM
[21] = second compound 1 µM, first compound 0.316 µM
[22] = second compound 1 µM, first compound 1 µM
[23] = second compound 1 µM, first compound 3.16 µM
[24] = second compound 1 µM, first compound 10 µM
[25] = second compound 3.16 µM, first compound 0.0316 µM
[26] = second compound 3.16 µM, first compound 0.1 µM
[27] = second compound 3.16 µM, first compound 0.316 µM
[28] = second compound 3.16 µM, first compound 1 µM
[29] = second compound 3.16 µM, first compound 3.16 µM
[30] = second compound 3.16 µM, first compound 10 µM
[31] = second compound 10 µM, first compound 0.0316 µM
[32] = second compound 10 µM, first compound 0.1 µM
[33] = second compound 10 µM, first compound 0.316 µM
[34] = second compound 10 µM, first compound 1 µM
[35] = second compound 10 µM, first compound 3.16 µM
[36] = second compound 10 µM, first compound 10 µM
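Note: spheroids exposed to drugs for one week before measurement.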
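Throughout, for viability, T/C: percent viability relative to DMSO vehicle control taken as 100%.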

## CNCc1ccc(-c2[nH]c3cc(F)cc4c3c2CCNC4=O)cc1 + Cc1cccc(N(C)C(=O)C2C(O)CCN2c2nc(C)cc(C(F)(F)F)c2C#N)c1
Second compound 0.0316 µM
  IC50: > 10 µM
Second compound 0.1 µM
  IC50: > 10 µM
Second compound 0.316 µM
  IC50: > 10 µM
Second compound 1 µM
  IC50: > 10 µM
Second compound 3.16 µM
  IC50: > 10 µM
Second compound 10 µM
  IC50: > 10 µM
[1]
  viability, T/C: 101%
[2]
  viability, T/C: 100%
[3]
  viability, T/C: 104%
[4]
  viability, T/C: 109%
[5]
  viability, T/C: 104%
[6]
  viability, T/C: 136%
[7]
  viability, T/C: 102%
[8]
  viability, T/C: 105%
[9]
  viability, T/C: 110%
[10]
  viability, T/C: 112%
[11]
  viability, T/C: 112%
[12]
  viability, T/C: 118%
[13]
  viability, T/C: 109%
[14]
  viability, T/C: 110%
[15]
  viability, T/C: 98.1%
[16]
  viability, T/C: 108%
[17]
  viability, T/C: 130%
[18]
  viability, T/C: 116%
[19]
  viability, T/C: 107%
[20]
  viability, T/C: 109%
[21]
  viability, T/C: 98.3%
[22]
  viability, T/C: 103%
[23]
  viability, T/C: 119%
[24]
  viability, T/C: 118%
[25]
  viability, T/C: 120%
[26]
  viability, T/C: 110%
[27]
  viability, T/C: 117%
[28]
  viability, T/C: 109%
[29]
  viability, T/C: 112%
[30]
  viability, T/C: 119%
[31]
  viability, T/C: 113%
[32]
  viability, T/C: 98.5%
[33]
  viability, T/C: 96.8%
[34]
  viability, T/C: 97%
[35]
  viability, T/C: 108%
[36]
  viability, T/C: 118%

## COc1cccc(OCCCN)c1-c1cc(Nc2cnc(C#N)cn2)n[nH]1 + Cc1cccc(N(C)C(=O)C2C(O)CCN2c2nc(C)cc(C(F)(F)F)c2C#N)c1
Second compound 0.0316 µM
  IC50: 0.188 µM
Second compound 0.1 µM
  IC50: 0.136 µM
Second compound 0.316 µM
  IC50: 0.0954 µM
Second compound 1 µM
  IC50: 0.207 µM
Second compound 3.16 µM
  IC50: 0.105 µM
Second compound 10 µM
  IC50: 0.112 µM
Second compound 0.0316 µM, first compound 0.00316 µM
  viability, T/C: 99.2%
Second compound 0.0316 µM, first compound 0.01 µM
  viability, T/C: 108%
[1]
  viability, T/C: 71.2%
[2]
  viability, T/C: 64.1%
[3]
  viability, T/C: 39.6%
[4]
  viability, T/C: 42%
Second compound 0.1 µM, first compound 0.00316 µM
  viability, T/C: 92.7%
Second compound 0.1 µM, first compound 0.01 µM
  viability, T/C: 104%
[7]
  viability, T/C: 75.6%
[8]
  viability, T/C: 53.7%
[9]
  viability, T/C: 49%
[10]
  viability, T/C: 38.2%
Second compound 0.316 µM, first compound 0.00316 µM
  viability, T/C: 100%
Second compound 0.316 µM, first compound 0.01 µM
  viability, T/C: 106%
[13]
  viability, T/C: 74.7%
[14]
  viability, T/C: 52%
[15]
  viability, T/C: 49.2%
[16]
  viability, T/C: 45.6%
Second compound 1 µM, first compound 0.00316 µM
  viability, T/C: 90.6%
Second compound 1 µM, first compound 0.01 µM
  viability, T/C: 103%
[19]
  viability, T/C: 71.1%
[20]
  viability, T/C: 65.9%
[21]
  viability, T/C: 40.6%
[22]
  viability, T/C: 38.9%
Second compound 3.16 µM, first compound 0.00316 µM
  viability, T/C: 120%
Second compound 3.16 µM, first compound 0.01 µM
  viability, T/C: 107%
[25]
  viability, T/C: 72.3%
[26]
  viability, T/C: 52.2%
[27]
  viability, T/C: 41%
[28]
  viability, T/C: 33.9%
Second compound 10 µM, first compound 0.00316 µM
  viability, T/C: 103%
Second compound 10 µM, first compound 0.01 µM
  viability, T/C: 85.1%
[31]
  viability, T/C: 64.8%
[32]
  viability, T/C: 54.1%
[33]
  viability, T/C: 37.8%
[34]
  viability, T/C: 39.8%

## O=C(c1cc(Cc2n[nH]c(=O)c3ccccc23)ccc1F)N1CCN(C(=O)C2CC2)CC1 + Cc1cccc(N(C)C(=O)C2C(O)CCN2c2nc(C)cc(C(F)(F)F)c2C#N)c1
Second compound 0.0316 µM
  IC50: > 10 µM
Second compound 0.1 µM
  IC50: > 10 µM
Second compound 0.316 µM
  IC50: > 10 µM
Second compound 1 µM
  IC50: > 10 µM
Second compound 3.16 µM
  IC50: > 10 µM
Second compound 10 µM
  IC50: > 10 µM
[1]
  viability, T/C: 90.3%
[2]
  viability, T/C: 85.9%
[3]
  viability, T/C: 98.3%
[4]
  viability, T/C: 104%
[5]
  viability, T/C: 99.6%
[6]
  viability, T/C: 101%
[7]
  viability, T/C: 93.5%
[8]
  viability, T/C: 108%
[9]
  viability, T/C: 95%
[10]
  viability, T/C: 97.5%
[11]
  viability, T/C: 110%
[12]
  viability, T/C: 77.4%
[13]
  viability, T/C: 93%
[14]
  viability, T/C: 94%
[15]
  viability, T/C: 95.9%
[16]
  viability, T/C: 104%
[17]
  viability, T/C: 106%
[18]
  viability, T/C: 83.8%
[19]
  viability, T/C: 125%
[20]
  viability, T/C: 101%
[21]
  viability, T/C: 108%
[22]
  viability, T/C: 117%
[23]
  viability, T/C: 102%
[24]
  viability, T/C: 80.2%
[25]
  viability, T/C: 96.4%
[26]
  viability, T/C: 111%
[27]
  viability, T/C: 99.6%
[28]
  viability, T/C: 115%
[29]
  viability, T/C: 92.8%
[30]
  viability, T/C: 74.2%
[31]
  viability, T/C: 102%
[32]
  viability, T/C: 94.5%
[33]
  viability, T/C: 83.2%
[34]
  viability, T/C: 89.2%
[35]
  viability, T/C: 92.9%
[36]
  viability, T/C: 69%
